Here are results for one compound from US11505579B2, “Methods of treatment and related compositions” (ASCEND BIOPHARMACEUTICALS LTD, priority 2020, dated 2022).

The structures appear in SMILES notation.

One assay relates to B16F10 tumours. In words: Tumour growth and survival of B16F10 tumour-bearing mice (B16F10-e357 study). The note with it: for mice alive after day 12: culled at ethical end point. Format: in vivo, mouse.
Assay [1] deals with operable basal cell carcinoma. The note with it: Vismodegib 150 mg daily over 12 weeks; Sofen et al. (2015); cited from earlier work.

Description for B16F10 tumours: The B16F10 murine colon carcinoma cell line was maintained in DMEM medium containing 10% fetal bovine serum, 2 mM glutamine, 100 units/mL sodium penicillin G, 25 μg/mL gentamicin, and 100 μg/mL streptomycin sulfate. The tumour cells were cultured in tissue culture flasks in a humidified incubator at 37° C., in an atmosphere of 5% CO2 and 95% air.
B16F10 cells were harvested during log phase growth and resuspended in PBS. Each mouse was injected subcutaneously in the right flank with 5×10^5 cells (in a 0.1 mL cell suspension). Tumours were calipered in two dimensions to monitor growth as their mean volume approached the desired 30 to 60 mm^3 range. Tumour size, in mm^3, was calculated from:
[formula] where w=width and l=length, in mm, of the tumour. Tumour weight can be estimated based on the assumption that 1 mg is equivalent to 1 mm^3 of tumour volume.
Eight days after tumour cell implantation, on Day 1 of the study, animals were sorted into eight groups (n=10 per group) according to tumour volume, with individual tumour volumes ranging from 32 to 63 mm^3 and group mean tumour volumes ranging from 41 to 42 mm^3. Tumour progression was monitored using caliper measurements three times weekly for the duration of the study.
Vismodegib and Ad5-mIFNg (stock concentration 3.3×10^12 viral particles/mL) were stored at −80° C. prior to formulation. On each day of dosing, Vismodegib was dissolved in vehicle 2 (75% PEG400:25% D5W (5% dextrose in water)) to obtain 5 mg/mL and 10 mg/mL dosing solutions which delivered a dose of 50 mg/kg and 100 mg/kg when administered in a volume of 10 mL/kg (0.2 mL per 20 g mouse), adjusted to the body weight of each animal.
On the first day of dosing, Ad5-mIFNg was thawed rapidly and diluted in vehicle 1 (1 M saccharose, 54 mg/L Tween® 80, 10 mM Tris, 1 mM MgCl2, 150 mM NaCl, pH 8) to obtain dosing solutions of 5×10^11 particles/mL and 2×10^11 particles/mL, which delivered 1×10^10 particles/animal when dosed in a fixed volume of 20 μL and 50 μL per animal, respectively.
On Day 1 of the study, female mice bearing established B16F10 tumours were sorted into eight groups (n=10 per group) and began dosing according to the treatment plan summarized in Table 2. Vehicle 1 and Ad5-mIFNg (1×10^10 particles per animal) were administered intratumourally (itu) in a fixed volume of either 20 μL or 50 μL; vehicle 2 and Vismodegib were administered orally (po) in a volume of 10 mL/kg (0.2 mL per 20 g mouse), adjusted to the body weight of each animal. The groups were as follow:
Group 1 served as the control group and received 20 μL vehicle 1 itu once a day (qd) for three days (qd×3) and vehicle 2 po qd×7.
Group 2 received 20 μL vehicle 1 itu qd×3 and 50 mg/kg vismodegib po qd×7.
Group 3 received 1×10^10 particles/animal Ad5-mIFNg in 20 μL itu qd×3 and vehicle 2.
Group 4 received 1×10^10 particles/animal Ad5-mIFNg 1 itu qd×3 and 50 mg/kg vismodegib 2 po qd×7.
Group 5 received 20 μL vehicle 1 itu once a week for a week (qwk×1) followed by 50 μL vehicle 1 itu qwk×1 (starting on Day 8) in addition to vehicle 2 po three times a week (tiwk) to Day 10.
Group 6 received 20 μL vehicle 1 itu once a week for a week (qwk×1) followed by 50 μL vehicle 1 itu qwk×1 (starting on Day 8) and 100 mg/kg Vismodegib in vehicle 2 po tiwk to Day 13. […]

With `CS(=O)(=O)c1ccc(C(=O)Nc2ccc(Cl)c(-c3ccccn3)c2)c(Cl)c1` [Vismodegib], the “tumour growth compared to the control vehicle treated groups” value is listed as “did not significantly reduce tumour growth” in the assay with B16F10 tumours (G2: Vismodegib 50 mg/kg po qd×7, vehicle 1 itu qd×3) and “did not significantly reduce tumour growth” in the assay with B16F10 tumours (G6: Vismodegib 100 mg/kg po tiwk×3, vehicle 1 itu). For the same compound, the “mice alive after day 12” value in the assay with B16F10 tumours (G2: Vismodegib 50 mg/kg po qd×7) and with B16F10 tumours (G6: Vismodegib 100 mg/kg po tiwk×3) was “none” each time. Moreover, the “mice still alive on day 36 (number of mice)” value in the assay with B16F10 tumours (G2: Vismodegib only 50 mg/kg po qd×7, day 36) was “no mice”. Besides, the “loco-regional CHC” value in assay [1] is listed as 16%.
